# T1: OCT1 (SLC22A1) (Homo sapiens, UniProt O15245)
# T1 sequence (O15245 whole entry): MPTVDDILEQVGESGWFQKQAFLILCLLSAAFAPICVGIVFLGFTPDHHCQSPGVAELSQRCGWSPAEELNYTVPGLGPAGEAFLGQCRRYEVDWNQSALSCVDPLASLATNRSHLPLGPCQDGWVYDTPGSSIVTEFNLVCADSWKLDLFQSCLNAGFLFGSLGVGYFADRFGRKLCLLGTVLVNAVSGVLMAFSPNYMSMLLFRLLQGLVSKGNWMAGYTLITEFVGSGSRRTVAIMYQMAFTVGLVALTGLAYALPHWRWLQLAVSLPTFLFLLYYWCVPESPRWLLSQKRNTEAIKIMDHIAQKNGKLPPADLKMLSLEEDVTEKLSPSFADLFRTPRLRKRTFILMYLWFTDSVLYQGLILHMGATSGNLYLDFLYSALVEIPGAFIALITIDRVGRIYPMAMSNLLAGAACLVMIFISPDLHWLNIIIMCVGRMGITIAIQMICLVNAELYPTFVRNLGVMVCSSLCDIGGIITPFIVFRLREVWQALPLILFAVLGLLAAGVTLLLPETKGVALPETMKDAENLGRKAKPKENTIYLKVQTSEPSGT
# T2: Solute carrier family 22 member 1 (Homo sapiens, UniProt O15245)
# T2 sequence (O15245 whole entry): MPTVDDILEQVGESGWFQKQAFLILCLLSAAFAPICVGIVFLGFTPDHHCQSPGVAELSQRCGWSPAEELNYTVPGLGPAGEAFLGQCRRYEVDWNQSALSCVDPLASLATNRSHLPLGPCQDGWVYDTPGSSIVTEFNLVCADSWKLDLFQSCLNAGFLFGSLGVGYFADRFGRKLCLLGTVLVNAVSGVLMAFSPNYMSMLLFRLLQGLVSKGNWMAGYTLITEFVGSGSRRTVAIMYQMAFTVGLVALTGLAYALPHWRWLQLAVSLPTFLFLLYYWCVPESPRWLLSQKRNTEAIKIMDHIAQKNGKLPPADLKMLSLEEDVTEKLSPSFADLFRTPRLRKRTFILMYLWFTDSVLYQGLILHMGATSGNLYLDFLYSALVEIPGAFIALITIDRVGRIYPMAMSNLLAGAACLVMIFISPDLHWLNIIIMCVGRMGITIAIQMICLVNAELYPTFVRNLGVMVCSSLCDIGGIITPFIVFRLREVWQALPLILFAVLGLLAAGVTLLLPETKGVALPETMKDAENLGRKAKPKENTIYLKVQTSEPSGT
# B1: Solute carrier family 22 member 1 (Homo sapiens) (protein)
# chain: MPTVDDILEQVGESGWFQKQAFLILCLLSAAFAPICVGIVFLGFTPDHHCQSPGVAELSQRCGWSPAEELNYTVPGLGPAGEAFLGQCRRYEVDWNQSALSCVDPLASLATNRSHLPLGPCQDGWVYDTPGSSIVTEFNLVCADSWKLDLFQSCLNAGFLFGSLGVGYFADRFGRKLCLLGTVLVNAVSGVLMAFSPNYMSMLLFRLLQGLVSKGNWMAGYTLITEFVGSGSRRTVAIMYQMAFTVGLVALTGLAYALPHWRWLQLAVSLPTFLFLLYYWCVPESPRWLLSQKRNTEAIKIMDHIAQKNGKLPPADLKMLSLEEDVTEKLSPSFADLFRTPRLRKRTFILMYLWFTDSVLYQGLILHMGATSGNLYLDFLYSALVEIPGAFIALITIDRVGRIYPMAMSNLLAGAACLVMIFISPDLHWLNIIIMCVGRMGITIAIQMICLVNAELYPTFVRNLGVMVCSSLCDIGGIITPFIVFRLREVWQALPLILFAVLGLLAAGVTLLLPETKGVALPETMKDAENLGRKAKPKENTIYLKVQTSEPSGT
# B2: Solute carrier family 22 member 3 (Homo sapiens) (protein)
# chain: MPSFDEALQRVGEFGRFQRRVFLLLCLTGVTFAFLFVGVVFLGTQPDHYWCRGPSAAALAERCGWSPEEEWNRTAPASRGPEPPERRGRCQRYLLEAANDSASATSALSCADPLAAFPNRSAPLVPCRGGWRYAQAHSTIVSEFDLVCVNAWMLDLTQAILNLGFLTGAFTLGYAADRYGRIVIYLLSCLGVGVTGVVVAFAPNFPVFVIFRFLQGVFGKGTWMTCYVIVTEIVGSKQRRIVGIVIQMFFTLGIIILPGIAYFIPNWQGIQLAITLPSFLFLLYYWVVPESPRWLITRKKGDKALQILRRIAKCNGKYLSSNYSEITVTDEEVSNPSFLDLVRTPQMRKCTLILMFAWFTSAVVYQGLVMRLGIIGGNLYIDFFISGVVELPGALLILLTIERLGRRLPFAASNIVAGVACLVTAFLPEGIAWLRTTVATLGRLGITMAFEIVYLVNSELYPTTLRNFGVSLCSGLCDFGGIIAPFLLFRLAAVWLELPLIIFGILASICGGLVMLLPETKGIALPETVDDVEKLGSPHSCKCGRNKKTPVSRSHL
# Columns and labels:
# OCT1 (SLC22A1) [1] = target: T1, OCT1 (SLC22A1); test: Substrate activity at human OCT1 expressed in HEK293 cells assessed as increase in compound uptake at 0.05 uM incubated for 2 mins by LC-MS/MS analysis relative to control empty vector transfected cells; assay type: cell-based; settings: HEK293 cells that express human OCT1, read-out: FC
# OCT1 (SLC22A1) [2] = target: T1, OCT1 (SLC22A1); test: Substrate activity at human OCT1 expressed in HEK293 cells assessed as increase in compound uptake at 0.1 uM incubated for 2 mins by LC-MS/MS analysis relative to control empty vector transfected cells; assay type: cell-based; settings: HEK293 cells that express human OCT1, read-out: FC
# OCT1 (SLC22A1) [3] = target: T1, OCT1 (SLC22A1); test: Substrate activity at human OCT1 expressed in HEK293 cells assessed as increase in compound uptake at 0.5 uM incubated for 2 mins by LC-MS/MS analysis relative to control empty vector transfected cells; assay type: cell-based; settings: HEK293 cells that express human OCT1, read-out: FC
# [4] = target: T2, Solute carrier family 22 member 1; test: Inhibition of human OCT1 expressed in HEK293 cells assessed as reduction in ASP+ substrate uptake by microplate reader based analysis; assay type: cell-based
# in vitro = settings: PAMPA
# Description: Passive membrane permeability by LC-MS/MS analysis based PAMPA
# [5] = Cmax in human at 80 mg, po dosed as immediate release formulation; assay type: ADME, organism-based; set-up: dose 80 mg, route oral; settings: in vivo
# [6] = Unbound Cmax in human at 80 mg, po dosed as immediate release formulation; assay type: ADME, organism-based; settings: in vivo
# [7] = Unbound maximal portal vein concentration of in human at 80 mg, po dosed as immediate release formulation; assay type: ADME, organism-based; settings: in vivo
# [8] = Ratio of unbound Cmax in human at 80 mg, po dosed as immediate release formulation to inhibition of human OCT1 expressed in HEK293 cells assessed as reduction in ASP+ substrate uptake by microplate reader based analysis; assay type: ADME, organism-based; settings: in vivo
# [9] = Ratio of unbound maximal portal vein concentration in human at 80 mg, po dosed as immediate release formulation to inhibition of human OCT1 expressed in HEK293 cells assessed as reduction in ASP+ substrate uptake by microplate reader based analysis; assay type: ADME, organism-based; settings: in vivo
# [10] = Ratio of unbound maximal portal vein concentration in human at 34 mg, iv to inhibition of human OCT1 expressed in HEK293 cells assessed as reduction in ASP+ substrate uptake by microplate reader based analysis; assay type: ADME, organism-based; settings: in vivo
# [11] = Unbound maximal portal vein concentration of in human at 34 mg, iv; assay type: ADME, tissue-based; settings: in vivo
# [12] = Ratio of unbound Cmax in human at 34 mg, iv to inhibition of human OCT1 expressed in HEK293 cells assessed as reduction in ASP+ substrate uptake by microplate reader based analysis; assay type: ADME, organism-based; settings: in vivo
# [13] = Cmax in human at 34 mg, iv; assay type: ADME; set-up: dose 34 mg, route intravenous; settings: in vivo
# [14] = Unbound Cmax in human at 34 mg, iv; assay type: ADME; settings: in vivo
# [15] = Ratio of unbound maximal portal vein concentration in human at 86 mg, po dosed as prolonged release formulation to inhibition of human OCT1 expressed in HEK293 cells assessed as reduction in ASP+ substrate uptake by microplate reader based analysis; assay type: ADME, organism-based; settings: in vivo
# [16] = Ratio of unbound Cmax in human at 86 mg, po dosed as prolonged release formulation to inhibition of human OCT1 expressed in HEK293 cells assessed as reduction in ASP+ substrate uptake by microplate reader based analysis; assay type: ADME, organism-based; settings: in vivo
# [17] = Unbound Cmax in human at 86 mg, po dosed as prolonged release formulation; assay type: ADME, organism-based; settings: in vivo
# [18] = Unbound maximal portal vein concentration of in human at 86 mg, po dosed as prolonged release formulation; assay type: ADME, organism-based; settings: in vivo
# [19] = Cmax in human at 86 mg, po dosed as prolonged release formulation; assay type: ADME, organism-based; set-up: dose 86 mg, route oral; settings: in vivo
# [20] = substrate: CNS(=O)(=O)Cc1ccc2[nH]cc(CCN(C)C)c2c1; test: Substrate activity at human OCT1 expressed in HEK293 cells assessed as increase in compound uptake by measuring Km incubated for 2 mins by LC-MS/MS analysis based Michaelis-Menten plot analysis relative to control empty vector transfected cells; assay type: cell-based
# [21] = substrate: C[N+]1(CC2CC2)CC[C@]23c4c5ccc(O)c4O[C@H]2C(=O)CC[C@@]3(O)[C@H]1C5; test: Substrate activity at human OCT3 expressed in HEK293 cells assessed as increase in compound uptake by measuring Km incubated for 2 mins by LC-MS/MS analysis based Michaelis-Menten plot analysis relative to control empty vector transfected cells; assay type: cell-based
Molecule,"uptake ratio at 2 min, 0.05 µM (OCT1 (SLC22A1) [1])","uptake ratio at 2 min, 0.1 µM (OCT1 (SLC22A1) [2])","uptake ratio at 2 min, 0.5 µM (OCT1 (SLC22A1) [3])",IC50 [4] [µM],Papp (in vitro) [×10⁻⁶ cm/s],other results
COc1ccc2c(c1)[C@@]13CCCC[C@H]1[C@@H](C2)NCC3,2.5,2.2,2,10 to 10.3,17.2,
COc1ccc2c3c1O[C@H]1C(=O)CC[C@@]4(O)[C@@H](C2)NCC[C@]314,4,3.9,3.6,200,0.9,
CNC[C@H]1CCCC[C@]1(O)c1cccc(OC)c1,,,,55.7,13.4,
"COc1cccc([C@@]2(O)CCCC[C@@H]2CN(C)C)c1 [(R,R)-TRAMADOL]",,,,88.8,26.9,
COc1ccc2c3c1O[C@H]1[C@@H](O)C=C[C@H]4[C@@H](C2)N(C)CC[C@@]341 [CODEINE],0.7,1,0.8,236,8,
CN1CC[C@@]23CCCC[C@@H]2[C@@H]1Cc1ccc(O)cc13 [DEXTRORPHAN],2.1,1.9,1.5,6 to 6.4,5.4,
COc1ccc2c3c1O[C@H]1C(=O)CC[C@H]4[C@@H](C2)N(C)CC[C@]314 [HYDROCODONE],0.9,1.6,1.2,537,9.1,
CN1CC[C@]23CCCC[C@H]2[C@H]1Cc1ccc(O)cc13 [LEVORPHANOL],1.5,1.7,1.3,8 to 8.48,9.2,
CCOC(=O)C1(c2ccccc2)CCN(C)CC1 [MEPERIDINE],1.1,1.2,1.2,22.3,40.2,
CCC1(c2cccc(O)c2)CCCCN(C)C1 (configuration not stated) [MEPTAZINOL],0.8,2.2,3.2,19,14.3,
O=C1CC[C@@]2(O)[C@H]3Cc4ccc(O)c5c4[C@@]2(CCN3CC2CC2)[C@H]1O5 [NALTREXONE],0.8,0.8,1,158,15.1,
Oc1ccc2c(c1)[C@@]13CCCC[C@H]1[C@@H](C2)NCC3 [NORLEVORPHANOL],14,14.9,17.4,24.9 to 25,0.7,
CN1CC[C@]23c4c5ccc(O)c4O[C@H]2C(=O)CC[C@@]3(O)[C@H]1C5 [OXYMORPHONE],2.4,1.3,0.9,250,3.2,
CC[C@@H](c1cccc(O)c1)[C@@H](C)CN(C)C [TAPENTADOL],0.9,1.6,1.5,21.9,13.6,Cmax [5]: 290 nM; fCmax [6]: 0.23 µM; fCmax [7]: 18.58 µM; Ratio [8]: 0.011; Ratio [9]: 0.849; Ratio [10]: 0.371; fCmax [11]: 8.13 µM; Ratio [12]: 0.04; Cmax [13]: 1100 nM; fCmax [14]: 0.88 µM; Ratio [15]: 0.842; Ratio [16]: 0.004; fCmax [17]: 0.08 µM; fCmax [18]: 18.43 µM; Cmax [19]: 100 nM
B1,,,,,,Km [20]: 55 µM
B2,,,,,,Km [21]: 22.5 µM; Vmax [21]: 1.75e-05 µmol/min/mg

# Source: ChEMBL document CHEMBL4321821, “Opioids as Substrates and Inhibitors of the Genetically Highly Variable Organic Cation Transporter OCT1” (J Med Chem, 2019)
